Test results as given in patent publication US11014912B2, “Cyanopyrrolidine derivatives with activity as inhibitors of USP30” (MISSION THERAPEUTICS LIMITED, priority 2016, dated 2021).

Target: USP30 (Homo sapiens (Human), UniProt Q70CQ3)
Experiment: USP30 biochemical IC50 assay
Settings: fluorescence polarisation, TAMRA labelled peptide linked to ubiquitin substrate; enzyme and compound incubated 30 min at room temp; read after 2 h; read-out: IC50 range
Experimental: USP30 Biochemical IC50 Assay
Dilution plates were prepared at 21 times the final concentration (2100 μM for a final concentration of 100 μM) in 50% DMSO in a 96-well polypropylene V-bottom plate (Greiner #651201). A typical 8-point dilution series would be 100, 30, 10, 3, 1, 0.3, 0.1, 0.03 μM final. Reactions were performed in duplicate in black 384 well plates (small volume, Greiner 784076) in a final reaction volume of 21 μl. Either 1 μl of 50% DMSO or diluted compound was added to the plate. USP30 was diluted in reaction buffer (40 mM Tris, pH 7.5, 0.005% Tween 20, 0.5 mg/ml BSA, 5 mM beta-mercaptoethanol) to the equivalent of 0.05 μl/well and 10 μl of diluted USP30 was added to the compound. Enzyme and compound were incubated for 30 min at room temp. Reactions were initiated by the addition of 50 nM of TAMRA labelled peptide linked to ubiquitin via an iso-peptide bond as fluorescence polarisation substrate. Reactions were read immediately after addition of substrate and following a 2 h incubation at room temperature. Readings were performed on a Pherastar Plus (BMG Labtech). A Excitation 540 nm; A Emission 590 nm.

USP30, sequence (Q70CQ3 57-517): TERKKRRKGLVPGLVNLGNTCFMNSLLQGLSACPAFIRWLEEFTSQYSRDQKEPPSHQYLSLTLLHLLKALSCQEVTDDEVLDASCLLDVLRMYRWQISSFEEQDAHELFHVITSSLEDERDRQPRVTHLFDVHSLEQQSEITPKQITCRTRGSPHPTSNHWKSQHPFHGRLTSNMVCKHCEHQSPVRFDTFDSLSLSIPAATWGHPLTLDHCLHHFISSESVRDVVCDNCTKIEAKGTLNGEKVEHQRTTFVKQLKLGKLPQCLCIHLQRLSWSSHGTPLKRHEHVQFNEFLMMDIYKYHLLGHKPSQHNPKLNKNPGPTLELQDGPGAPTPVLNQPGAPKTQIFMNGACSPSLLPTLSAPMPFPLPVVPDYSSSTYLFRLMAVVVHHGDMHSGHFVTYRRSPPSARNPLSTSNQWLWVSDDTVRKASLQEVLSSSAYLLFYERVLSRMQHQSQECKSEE

| Structure (SMILES) | IC50 [nM] |
| --- | --- |
| CC(C)Oc1ccc(C2CN(C(=O)C[C@@H]3CCN(C#N)C3)C2)nc1 [Example 65, (S)-3-(2-(3-(5-isopropoxypyridin-2-yl)azetidin-1-yl)-2-oxoethyl)pyrrolidine-1-carbonitrile] | 100 to 1000 |
| C[C@@H](C(=O)Nc1cc(-c2cccc(Cl)c2)no1)[C@@H]1CCN(C#N)C1 [Example 53, (R)-N-(3-(3-chlorophenyl)isoxazol-5-yl)-2-((S)-1-cyanopyrrolidin-3-yl)propanamide] | 10 to 100 |
| Cc1cc(C2CN(C(=O)CC3CCN(C#N)C3)C2)ccn1 (stereo not shown) [Example 15, 3-(2-(3-(2-Methylpyridin-4-yl)azetidin-1-yl)-2-oxoethyl)pyrrolidine-1-carbonitrile] | 1000 to 10000 |
| CN(C)C(=O)c1ccc(C2CN(C(=O)C[C@@H]3CCN(C#N)C3)C2)cc1 [Example 60, (S)-4-(1-(2-(1-cyanopyrrolidin-3-yl)acetyl)azetidin-3-yl)-N,N-dimethylbenzamide] | 100 to 1000 |
